# Paper PMC12369846, “Structural Insights into Isovaleryl-Coenzyme A Dehydrogenase: Mechanisms of Substrate Specificity and Implications of Isovaleric Acidemia-Associated Mutations” (Research, 2025)
# Numbering of substitutions follows the chain as printed. Names may count otherwise.
# T1: human IVD (isovaleryl-CoA dehydrogenase) (Homo sapiens, UniProt P26440)
# T1 construct: residues 33-426 (transit peptide removed), N-terminal 8xHis tag, pET-28a, E. coli BL21(DE3)
# T1 sequence (P26440 33-426): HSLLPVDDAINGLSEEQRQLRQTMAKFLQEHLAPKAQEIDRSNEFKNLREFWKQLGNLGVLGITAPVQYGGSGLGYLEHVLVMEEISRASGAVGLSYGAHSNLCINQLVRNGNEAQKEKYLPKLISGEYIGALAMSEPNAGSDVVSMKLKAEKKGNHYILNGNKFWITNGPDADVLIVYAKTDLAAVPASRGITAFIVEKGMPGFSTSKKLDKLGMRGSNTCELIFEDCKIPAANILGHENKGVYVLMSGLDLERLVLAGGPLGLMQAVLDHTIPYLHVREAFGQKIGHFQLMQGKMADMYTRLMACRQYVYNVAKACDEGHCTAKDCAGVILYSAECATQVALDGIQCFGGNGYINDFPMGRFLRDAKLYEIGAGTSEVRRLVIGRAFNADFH
# T2: human IVD (isovaleryl-CoA dehydrogenase) (Homo sapiens, UniProt P26440, E286A)
# T2 construct: residues 33-426 (transit peptide removed), N-terminal 8xHis tag, pET-28a, E. coli BL21(DE3)
# T2 sequence (P26440 33-426 E286A): T1 sequence (P26440 33-426) with E254A
# T3: Isovaleryl-CoA dehydrogenase (IVD), human, wild type, residues 33-426 (human), P26440
# T3 chain: T1 sequence (P26440 33-426)
# B1: Isovaleryl-CoA dehydrogenase (IVD), human, wild type, residues 33-426, P26440 33-426 (enzyme)
# chain: T1 sequence (P26440 33-426)
# B2: Isovaleryl-CoA dehydrogenase (IVD), human, E286A mutant, residues 33-426 (enzyme, UniProt P26440 33-426, looked up)
# chain: T1 sequence (P26440 33-426) with E254A
# notes: human isovaleryl-CoA dehydrogenase (IVD), residues 33 to 426, catalytic-base mutant made by PCR on the WT plasmid; Used for the cryo-EM structures with isovaleryl-CoA and butyryl-CoA; also called IVD E286A; source: E. coli BL21 (DE3), purified (Ni-NTA, SEC on Superdex 200)
# How the values were obtained:
# [1] = target: T1, human IVD (isovaleryl-CoA dehydrogenase); experiment: cryo-EM structure; type: binding; conditions: noncovalent cofactor, 4 FAD per tetramer; FAD added to buffer; pH 7.4; 2.55 Å
# [2] = target: T2, human IVD (isovaleryl-CoA dehydrogenase); experiment: surface plasmon resonance; type: binding; conditions: read-out: KDapp
# [3] = target: T3, Isovaleryl-CoA dehydrogenase (IVD), …; experiment: cryo-EM structure; purified IVD from SEC in 50 mM tris-HCl pH 7.4, 150 mM NaCl with added FAD; no acyl-CoA; 2.55 Å; conditions: remark: other sources report otherwise
# [4] = target: the molecule itself; experiment: cryo-EM structure; purified IVD E286A incubated with isovaleryl-CoA or butyryl-CoA at 37 °C for 15 min, FAD bound; 3.35 and 2.91 Å
molecule,measurement,setting,value
Cc1cc2nc3c(=O)[nH]c(=O)nc-3n(C[C@H](O)[C@H](O)[C@H](O)COP(=O)(O)OP(=O)(O)OC[C@H]3O[C@@H](n4cnc5c(N)ncnc54)[C@H](O)[C@@H]3O)c2cc1C [FAD],cryo-EM structure,[1],resolved in the form of only combining with FAD molecules
CCCC(=O)SCCNC(=O)CCNC(=O)[C@H](O)C(C)(C)COP(=O)(O)OP(=O)(O)OC[C@H]1O[C@@H](n2cnc3c(N)ncnc32)[C@H](O)[C@@H]1OP(=O)(O)O [butyryl-CoA],Kd,[2],494 nM
CC(C)CC(=O)SCCNC(=O)CCNC(=O)[C@H](O)C(C)(C)COP(=O)(O)OP(=O)(O)OC[C@H]1O[C@@H](n2cnc3c(N)ncnc32)[C@H](O)[C@@H]1OP(=O)(O)O [isovaleryl-CoA],Kd,[2],848 nM
B1,stoichiometry N,[3],4
B2,binding result,[4],binds
